Experimental data from patent publication US20190099502A1, “TARGETING THE NEURONAL CALCIUM SENSOR 1 FOR TREATING WOLFRAM SYNDROME” (INSERM (INSTITUT NATIONAL DE LA SANTÉ ET DE LA RECHERCHE …, priority 2016, published 2019).
Where a SMILES comes first, the peptide text is derived from it. The star is where a group is joined. Cbz = O=C(OCc1ccccc1)*

System: NCS1 expression
Test: Time course immunoblotting of NCS1 in fibroblasts treated with MG-132
Format: cell-based, human
Conditions: 10 μM MG-132, 16 h
Protocol: Immunoprecipitates were analysed by western blotting with antibodies against Flag and myc. Input represents cell lysate. n=3 independent experiments. (B) Transcript levels of WFS1 were quantified by RT-qPCR in control (C1, C2) and patient fibroblasts (P1, P2). The mRNA levels were normalized with reference gene L27. Error bars: SEM n=6 independent experiments. (C) Immunoblot of lysates from controls (C1, C2) and patient fibroblasts (P1, P2) with NCS1 antibody. GAPDH was used as a loading control. The immunoblot bands were quantified by densitometry, and the NCS1/GAPDH ratios were calculated (n=5 independent experiments). (D) Western analysis and quantification of control fibroblasts transfected with scramble siRNA (siScr) or WFS1 siRNA (siWFS1). WFS1 and NCS1 protein expression were analysed 72 h post-siRNA transfection. Data are represented as mean ±SEM from n=7 independent experiments *p<0.05, using Mann Whitney test. […]
GAPDH was used as a loading control. Quantification of NCS1 expression level after 16 h of MG-132 treatment normalized to GAPDH is shown. […]
To investigate NCS1 functions in WS, we took advantage of WFS1-null patient fibroblasts. […] We first examined the expression of WFS1 using quantitative PCR and western blot. […] Then, we analysed NCS1 mRNA and protein expression in patient cells. […]

CC(C)C[C@@H](C=O)NC(=O)[C@H](CC(C)C)NC(=O)[C@H](CC(C)C)NC(=O)OCc1ccccc1 [MG-132] (Cbz-Leu-Leu-Leu-aldehyde)
effect on NCS1 expression (control cells): ineffective
increase in NCS1 expression (patient fibroblasts, normalized to GAPDH): two-fold
